# Laboratory results taken from PubChem BioAssay AID1963841 (Molecular Pharmacology Branch, DTP, NCI, 2024).
# Tested on: 439559-082-T-J2-PDC spheroid viability
# Experiment: Anticancer human tumor 439559-082-T-J2-PDC patient-derived colon adenocarcinoma cell line growth inhibition [POLQ]
# Settings: spheroids with HUVEC and MSC; for IC50: curve of first compound; for viability, T/C: stronger effect = lower value
# Procedure: Multicellular complex tumor spheroid response to Polymerase (POL) inhibitors (novobiocin, ART-558, RP6685) in combination with a variety of drugs and investigational agents in selected tumor cell lines
# The POL inhibitors (novobiocin, ART-558, and RP6685) were evaluated both individually and in combination with standard of care and investigational anticancer small molecules within a complex spheroid model of solid tumors. . Complex spheroids include a stromal component modeled by human endothelial cells (HUVEC) and fibroblasts modeled by human mesenchymal stem cells (MSCs). The concentration ranges selected for each drug and investigational agent were based upon clinically achievable concentrations if the clinical Cmax of the agent was known.
# Compounds. The drugs and investigational agents: novobiocin (NSC847541), ART-558 (NSC835418), RP-6685 (NSC848927), peposertib (NSC802822), ceralasertib (NSC780249), elimusertib (NSC800525), camonsertib (NSC841442), AZD-1390 (NSC803789), olaparib (NSC753686), talazoparib (NSC767125), rucaparib (NSC756644), sotorasib (NSC818433), MRTX-1133 (NSC836407), SN-38 (NSC673596), topotecan (NSC609699), epotoside (NSC141540), doxorubicin (NSC123127), gemcitabine (NSC613327), 5-fluorouracil (NSC19893), paclitaxel (NSC125973), vemurafenib (NSC761431), MSA-2 (NSC828583), SN-011 (NSC837082), adavosertib (NSC754352), prexasertib (NSC758257), carboplatin (NSC241240) and oxaliplatin (NSC266046), were obtained from the National Cancer Institute (NCI) Developmental Therapeutics Program Chemical Repository (21). The FDA-approved anticancer drug set is available from the Developmental Therapeutics Program at https://dtp.cancer.gov/organization/dscb/obtaining/. […] The stock solutions were prepared in dimethyl sulfoxide (DMSO, Sigma-Aldrich, St. Louis, MO, cat. D2650), except for the platinum compounds which were prepared in saline (Quality Biological, Gaithersburg, MD, cat. 114-055-101), at 800-fold the tested concentration and stored at -70 degrees C prior to their use. All drugs and investigational agents were tested over a range starting from a high concentration at or near the clinical Cmax and decreasing in half-log increments. If the clinical Cmax for an agent had not been determined, the highest concentration tested was 10 microM, except for SN-38, which was tested at a high concentration of 1 microM.
# Cell Culture. All cells were maintained in an incubator at 37 degrees C and 5% CO2 with 95% humidity. The PDC lines were cultured according to standard operating procedures established by the NCI PDMR (https://pdmr.cancer.gov). Table 3 of the manuscript, lists the cell lines along with the number of the three cell types plated to form the mct-spheroids and media for tumor cell growth. After thawing, all PDC lines, except 997537-175-T-J1-PDC and 415267-285-R-J2-PDC, were cultured in Matrigel-coated flasks prepared with a working solution of 1X Ham's F-12 nutrient mix, without supplementation (Thermo Fisher Scientific, cat. 11765054), 100 U/mL penicillin-streptomycin (Thermo Fisher Scientific, cat. 15140122), and 2.5% Matrigel (Corning Inc., Corning, NY, cat. 354248) for the first three passages. The two PDC lines 997537-175-T-J1-PDC and 415267-285-R-J2-PDC were cultured on uncoated flasks. The 857933-349-R-J2-PDC line was cultured in 6C/Colon 1B media containing advanced DMEM/F-12 (Thermo Fisher Scientific, cat. 12634028), 10 mM HEPES (Thermo Fisher Scientific, cat. 15630080), 1X GlutaMAX supplement (Thermo Fisher Scientific, cat. 35050061), 0.1 mg/mL primocin (InvivoGen, San Diego, CA, cat. ant-pm-2), 10% defined fetal bovine serum, heat inactivated (HyClone Laboratories Inc., Logan, UT, cat. SH30070.03HI), 50% L-WRN conditioned media (ATCC, cat. CRL-3276), 1.25 mM N-Acetyl-L-cysteine (Sigma-Aldrich, cat. A9165), 10 mM nicotinamide (Sigma-Aldrich, cat. N0636), 1X B-27 supplement (Thermo Fisher Scientific, cat. 17504044), 1X N-2 supplement (Thermo Fisher Scientific, cat. […]
# [1] = second compound 0.0316 µM, first compound 0.0316 µM
# [2] = second compound 0.0316 µM, first compound 0.1 µM
# [3] = second compound 0.0316 µM, first compound 0.316 µM
# [4] = second compound 0.0316 µM, first compound 1 µM
# [5] = second compound 0.0316 µM, first compound 3.16 µM
# [6] = second compound 0.0316 µM, first compound 10 µM
# [7] = second compound 0.1 µM, first compound 0.0316 µM
# [8] = second compound 0.1 µM, first compound 0.1 µM
# [9] = second compound 0.1 µM, first compound 0.316 µM
# [10] = second compound 0.1 µM, first compound 1 µM
# [11] = second compound 0.1 µM, first compound 3.16 µM
# [12] = second compound 0.1 µM, first compound 10 µM
# [13] = second compound 0.316 µM, first compound 0.0316 µM
# [14] = second compound 0.316 µM, first compound 0.1 µM
# [15] = second compound 0.316 µM, first compound 0.316 µM
# [16] = second compound 0.316 µM, first compound 1 µM
# [17] = second compound 0.316 µM, first compound 3.16 µM
# [18] = second compound 0.316 µM, first compound 10 µM
# [19] = second compound 1 µM, first compound 0.0316 µM
# [20] = second compound 1 µM, first compound 0.1 µM
# [21] = second compound 1 µM, first compound 0.316 µM
# [22] = second compound 1 µM, first compound 1 µM
# [23] = second compound 1 µM, first compound 3.16 µM
# [24] = second compound 1 µM, first compound 10 µM
# [25] = second compound 3.16 µM, first compound 0.0316 µM
# [26] = second compound 3.16 µM, first compound 0.1 µM
# [27] = second compound 3.16 µM, first compound 0.316 µM
# [28] = second compound 3.16 µM, first compound 1 µM
# [29] = second compound 3.16 µM, first compound 3.16 µM
# [30] = second compound 3.16 µM, first compound 10 µM
# [31] = second compound 10 µM, first compound 0.0316 µM
# [32] = second compound 10 µM, first compound 0.1 µM
# [33] = second compound 10 µM, first compound 0.316 µM
# [34] = second compound 10 µM, first compound 1 µM
# [35] = second compound 10 µM, first compound 3.16 µM
# [36] = second compound 10 µM, first compound 10 µM
# 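Note: spheroids exposed to compounds for seven days before readout.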
# 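Throughout, for viability, T/C: 100% = DMSO vehicle control viability.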
structure (smiles),measurement,setting,value
Nc1ccn(C2OC(CO)C(O)C2(F)F)c(=O)n1 (centres undefined) + Nc1ccc(C#CCN(C(=O)Cc2ncc(C(F)(F)F)cc2C(F)(F)F)c2ccc(F)cc2)nn1,IC50,second compound 0.0316 µM,393 nM
same,IC50,second compound 0.1 µM,583 nM
same,IC50,second compound 0.316 µM,464 nM
same,IC50,second compound 1 µM,519 nM
same,IC50,second compound 3.16 µM,615 nM
same,IC50,second compound 10 µM,1920 nM
same,"viability, T/C",[1],81.7%
same,"viability, T/C",[2],88.2%
same,"viability, T/C",[3],54.1%
same,"viability, T/C",[4],35.6%
same,"viability, T/C",[5],32.7%
same,"viability, T/C",[6],28.2%
same,"viability, T/C",[7],89.5%
same,"viability, T/C",[8],90.7%
same,"viability, T/C",[9],63%
same,"viability, T/C",[10],38.9%
same,"viability, T/C",[11],33.9%
same,"viability, T/C",[12],28.8%
same,"viability, T/C",[13],91.1%
same,"viability, T/C",[14],90.2%
same,"viability, T/C",[15],57.4%
same,"viability, T/C",[16],35.5%
same,"viability, T/C",[17],33.2%
same,"viability, T/C",[18],26.1%
same,"viability, T/C",[19],86.4%
same,"viability, T/C",[20],85.6%
same,"viability, T/C",[21],59.1%
same,"viability, T/C",[22],37.9%
same,"viability, T/C",[23],32.7%
same,"viability, T/C",[24],28.8%
same,"viability, T/C",[25],86.3%
same,"viability, T/C",[26],79.3%
same,"viability, T/C",[27],62.9%
same,"viability, T/C",[28],39.1%
same,"viability, T/C",[29],36.1%
same,"viability, T/C",[30],27.1%
same,"viability, T/C",[31],90.1%
same,"viability, T/C",[32],80%
same,"viability, T/C",[33],81.9%
same,"viability, T/C",[34],63.4%
same,"viability, T/C",[35],39.3%
same,"viability, T/C",[36],35.9%
O=C(c1cc(Cc2n[nH]c(=O)c3ccccc23)ccc1F)N1CCN(C(=O)C2CC2)CC1 + Nc1ccc(C#CCN(C(=O)Cc2ncc(C(F)(F)F)cc2C(F)(F)F)c2ccc(F)cc2)nn1,IC50,second compound 0.0316 µM,> 10000 nM
same,IC50,second compound 0.1 µM,> 10000 nM
same,IC50,second compound 0.316 µM,> 10000 nM
same,IC50,second compound 1 µM,> 10000 nM
same,IC50,second compound 3.16 µM,> 10000 nM
same,IC50,second compound 10 µM,> 10000 nM
same,"viability, T/C",[1],93.4%
same,"viability, T/C",[2],97.3%
same,"viability, T/C",[3],93.4%
same,"viability, T/C",[4],101%
same,"viability, T/C",[5],94.3%
same,"viability, T/C",[6],98%
same,"viability, T/C",[7],93.1%
same,"viability, T/C",[8],106%
same,"viability, T/C",[9],89.1%
same,"viability, T/C",[10],117%
same,"viability, T/C",[11],92.8%
same,"viability, T/C",[12],99.8%
same,"viability, T/C",[13],91.5%
same,"viability, T/C",[14],105%
same,"viability, T/C",[15],86.8%
same,"viability, T/C",[16],96.1%
same,"viability, T/C",[17],106%
same,"viability, T/C",[18],96.9%
same,"viability, T/C",[19],104%
same,"viability, T/C",[20],107%
same,"viability, T/C",[21],94.1%
same,"viability, T/C",[22],108%
same,"viability, T/C",[23],84.7%
same,"viability, T/C",[24],104%
same,"viability, T/C",[25],88%
same,"viability, T/C",[26],116%
same,"viability, T/C",[27],98.3%
same,"viability, T/C",[28],106%
same,"viability, T/C",[29],103%
same,"viability, T/C",[30],98.3%
same,"viability, T/C",[31],92.8%
same,"viability, T/C",[32],87.9%
same,"viability, T/C",[33],95.5%
same,"viability, T/C",[34],90.7%
same,"viability, T/C",[35],98.2%
same,"viability, T/C",[36],103%
